According to patent publication US10183015B2, “Heterocyclic compounds and methods of use” (Medivation Technologies LLC, priority 2015, dated 2019):
Read-outs that look alike come from different tables or passages of the source.

How the values were obtained:
HepG2 cells = assay: HepG2 cell viability under serum-free conditions (MTS); type: cell-based; details: Homo sapiens, HepG2, 72 h, 3 days, DMEM without FBS, read-out: Average Viability (% Inhibition, n = 3)
Experimental: (§1) Cancer cells such as HepG2 cells depend on SREBP activation and de novo lipogenesis to survive, particularly in low serum or serum-free conditions. Using this model, compounds were screened over 24 hours for the ability to block cleavage of SREBP to its active form and over 72 hours for an effect on cell viability under serum-free conditions.
For viability measurements, HepG2 cells were seeded at 5,000 cells per well in 96-well plates in DMEM supplemented with 10% FBS. After 1 day in culture, cells were treated with compounds (20 μM & 5 μM) for 3 days in DMEM without FBS. Viability was measured by MTS […]. […]

[1] = PK parameters for representative compounds (i.v. and p.o.), Table 4; details: in vivo; for half-life: read-out: Terminal t1/2 (converted)
SREBP2 = SREBP2 cleavage in HepG2 cells (Western blot); type: cell-based; details: 20 μM, 1 day, DMEM without FBS
Experimental: as §1
Average SREBP2 cleavage in HepG2 cells was measured in the presence of compounds disclosed in Table 1. HepG2 cells were seeded at 500,000 cells per well in 6-well plates in DMEM supplemented with 10% FBS. After 2 days, cells were treated with compounds (20 μM) for 1 day in DMEM without FBS. Western blots were normalized with respect to actin.

Structure (SMILES) | cytotoxicity at 5 µM (HepG2 cells) | cytotoxicity at 20 µM (HepG2 cells) | other results
CN1CCN(c2cc(-c3nc(-c4ccc(NS(=O)(=O)C(F)(F)F)cc4Cl)cs3)ccn2)CC1 [Compound 76, N-(3-chloro-4-{2-[2-(4-methylpiperazin-1-yl)pyridin-4-yl]-1,3-thiazol-4-yl}phenyl)-1,1,1-trifluoromethanesulfonamide] | 3% | – | –
CS(=O)(=O)Nc1cc(-c2nc(-c3ccc(NS(=O)(=O)C(F)(F)F)cc3Cl)cs2)ccn1 [Compound 62, N-{3-chloro-4-[2-(2-methanesulfonamidopyridin-4-yl)-1,3-thiazol-4-yl]phenyl}-1,1,1-trifluoromethanesulfonamide] | – | 0% | –
CCCc1cc(-c2nc(-c3cccc(NS(=O)(=O)C(F)(F)F)c3)cs2)ccn1 [Compound 2, 1,1,1-trifluoro-N-(3-(2-(2-propylpyridin-4-yl)thiazol-4-yl)phenyl)methanesulfonamide] | – | 80.5% | –
O=S(=O)(Nc1ccc(-c2csc(-c3ccnc(N4CCCCC4)c3)n2)c(Cl)c1)C(F)(F)F [Compound 85, N-(3-chloro-4-{2-[2-(piperidin-1-yl)pyridin-4-yl]-1,3-thiazol-4-yl}phenyl)-1,1,1-trifluoromethanesulfonamide] | 93% | – | –
O=S(=O)(Nc1ccc(-c2csc(-c3cncc4ccccc34)n2)c(Cl)c1)C(F)(F)F [Compound 75, N-{3-chloro-4-[2-(isoquinolin-4-yl)-1,3-thiazol-4-yl]phenyl}-1,1,1-trifluoromethanesulfonamide] | 88% | – | –
O=S(=O)(Nc1ccc(-c2csc(-c3ccnc(Cc4ccccc4)c3)n2)c(Cl)c1)C(F)(F)F [Compound 60, N-{4-[2-(2-benzylpyridin-4-yl)-1,3-thiazol-4-yl]-3-chlorophenyl}-1,1,1-trifluoromethanesulfonamide] | – | 100% | –
O=S(=O)(Nc1ccc(-c2csc(-c3ccnc(NC4CCCC4)c3)n2)c(Cl)c1)C(F)(F)F [Compound 92, N-(3-chloro-4-{2-[2-(cyclopentylamino)pyridin-4-yl]-1,3-thiazol-4-yl}phenyl)-1,1,1-trifluoromethanesulfonamide] | 94% | – | –
O=S(=O)(Nc1ccc(-c2csc(-c3ccc(F)cc3CN3CCCC3)n2)c(Cl)c1)C(F)(F)F [Compound 91, N-(3-chloro-4-{2-[4-fluoro-2-(pyrrolidin-1-ylmethyl)phenyl]-1,3-thiazol-4-yl}phenyl)-1,1,1-trifluoromethanesulfonamide] | 4% | – | –
O=S(=O)(Nc1ccc(-c2csc(-c3ccc4c(c3)CCO4)n2)c(Cl)c1)C(F)(F)F [Compound 82, N-{3-chloro-4-[2-(2,3-dihydro-1-benzofuran-5-yl)-1,3-thiazol-4-yl]phenyl}-1,1,1-trifluoromethanesulfonamide] | 82% | – | –
O=S(=O)(Nc1ccc(-c2csc(-c3ccc(F)cc3C(F)(F)F)n2)c(Cl)c1)C(F)(F)F [Compound 81, N-[3-chloro-4-[2-[4-fluoro-2-(trifluoromethyl)phenyl]thiazol-4-yl]phenyl]-1,1,1-trifluoro-methanesulfonamide] | 88% | – | –
O=S(=O)(Nc1ccc(-c2csc(-c3cccc4ccccc34)n2)c(Cl)c1)C(F)(F)F [Compound 71, N-{3-chloro-4-[2-(naphthalen-1-yl)-1,3-thiazol-4-yl]phenyl}-1,1,1-trifluoromethanesulfonamide] | 97% | – | –
CC(C)(C)c1cc(-c2nc(-c3ccc(NS(=O)(=O)C(F)(F)F)cc3Cl)cs2)ccn1 [Compound 5, N-(4-(2-(2-tert-butylpyridin-4-yl)thiazol-4-yl)-3-chlorophenyl)-1,1,1-trifluoromethanesulfonamide] | – | 99.2% | AUC(0-t) ([1]; iv, i.v. @ 2 mg/kg): 41 µM·h; Cmax ([1]; iv, i.v. @ 2 mg/kg): 10.2 µM; Vd ([1]; iv, i.v. @ 2 mg/kg): 0.345 L/kg; clearance ([1]; iv, i.v. @ 2 mg/kg): 1.58 mL/min/kg; half-life ([1]; iv, i.v. @ 2 mg/kg): 2.51 h; AUC(0-t) ([1]; po, p.o. @ 10 mg/kg): 302 µM·h; Cmax ([1]; po, p.o. @ 10 mg/kg): 20.3 µM; Tmax ([1]; po, p.o. @ 10 mg/kg): 1 h; bioavailability ([1]; po, p.o. @ 10 mg/kg vs i.v. @ 2 mg/kg): 149%; half-life ([1]; po, p.o. @ 10 mg/kg): 6.96 h; Average SREBP2 cleavage (% Inhibition, n = 3) (SREBP2): 81.7%
COc1ccc(-c2nc(-c3ccc(NS(=O)(=O)C(F)(F)F)cc3Cl)cs2)cc1OC [Compound 79, N-{3-chloro-4-[2-(3,4-dimethoxyphenyl)-1,3-thiazol-4-yl]phenyl}-1,1,1-trifluoromethanesulfonamide] | 74% | – | –
